Reference: patent US20180271470A1, “METHODS FOR QUANTIFYING PANCREATIC BETA CELL FUNCTION AND MASS PROPERTIES WITH RADIOMANGANESE POSITRON EMISSION TOMOGRAPHY” (Wisconsin Alumni Research Foundation, priority 2017, published 2018)

What was measured:
[1] = OLINDA dosimetry calculations for Mn-51 and daughter Cr-51; design: species or system human; conditions: OLINDA input
Method: Due to the rapid blood clearance of Mn^2+, OLINDA (Organ Level INternal Dose Assessment) dosimetry calculations were performed assuming instant compartment localization with organ activity fractions equal to those measured by ex vivo biodistribution herein. Based on the previously measured lengthy organ residence times of Mn^2+, it was also assumed that the effective organ clearance half-life (Ter) was equal to the radioactive half-life of Mn-51 (t1/2: 45.6 min). It was also assumed that Mn-51 injections were 100% radionuclidically pure. In regards to the daughter isotope, Cr-51 (t1/2: 27.7 d), it was assumed that the activity remained in same organ compartments as the parent Mn-51 biodistribution without biological clearance. Standard radiation weighting factors were used (γ=1, β=1). Based on these assumptions, effective dose (ED) and effective dose equivalent (EDE) (units of mSv/MBq) were calculated for a standard adult male and female.

[2] = test system: pancreatic uptake of ^52Mn^2+; test: One hour biodistribution of ^52Mn^2+ in anesthetized (1% isoflurane) or awake mice; format: in vivo; conditions: 1% isoflurane vs awake, 1 h post injection, regardless of administration regime or glucose stimulation
Method: Previous reports have shown that most volatile anesthetics, including isoflurane, impair insulin secretion by inhibiting the deactivation of KATP channels. Plausibly, the observed decrease in pancreatic uptake of ^52Mn^2+ resulted from mice being anesthetized through the full extent of the studies during the dynamic PET scans. To investigate the impact of isoflurane anesthesia on pancreatic uptake, one hour post injection biodistribution experiments were performed under different administration conditions in either anesthetized (1% isoflurane) or awake mice.

[3] = ^52Mn^2+ PET and biodistribution in STZ type-1 diabetes model; format: in vivo, ICR mice; conditions: ICR female mice, single STZ 180 mg/kg IP, four days after induction
Method: Type 1 diabetes was induced in female ICR mice via a single IP injection of 180 mg/kg streptozotocin (STZ; MP Biomedical, LLC, Santa Ana, Calif.), a toxin that selectively destroys pancreatic beta cell. The injectable STZ solution (12.5 mg/mL) was prepared freshly in phosphate buffered saline (PBS). The weight of each mouse was measured daily, and blood glucose levels were recorded every other day with a glucometer (TRUEresult, Trividia Health Inc., Fort Lauderdale, Fla.) using blood samples collected from the tail vein. Mice were considered diabetic after two consecutive blood glucose readings above 250 mg/dL and were used for PET imaging studies one week after the injection of STZ. To evaluate ^52Mn^2+ pancreatic uptake on diabetic mice, 0.74 MBq (20 μCi) of activity were administered IV and static PET images recorded one hour after administration of the tracer. Ex vivo biodistribution was carried out following PET acquisition.

[4] = test system: ^52Mn^2+ pancreatic uptake; test: Pharmacological manipulation of ^52Mn^2+ pancreatic uptake in vivo (PET and biodistribution); design: species or system ICR mice
Method: To investigate the specificity of ^52Mn^2+ for beta cells, a series of studies were performed where ^52Mn^2+ uptake was manipulated through the pharmacologic stimulation or inhibition of the insulin secretory pathway. In these experiments, 0.74-1.85 MBq (20-50 μCi) of ^52Mn^2+ was administered IV into either female ICR or C57BL/6J mice and static PET scans were acquired at one hour post injection. During tracer administration, mice were awake. Mice were only anaesthetized by isoflurane (1%) immediately before PET imaging.
To corroborate the correlation between ^52Mn^2+ pancreatic uptake and the mechanism of insulin release in beta cells, the insulin secretory pathways were stimulated in vivo using glucose and glibendamide (Tocris Biosciences, Bristol, UK), which promotes insulin release in beta cells via blockade of ATP-sensitive potassium channel (KATP). Mice were injected intraperitoneally (IP) with 100 μL of glucose (1 g/kg) or glucose (1 g/kg)+glibenclamide (5 mg/kg) in PBS, 15 min before the IV injection of 0.74-1.85 MBq (20-50 μCi)^52Mn^2+. Static PET scans were acquired one hour after the injection of the radiotracer, after which ex vivo biodistribution was performed.
Whole-body PET scans were acquired at one hour post injection, after which ex vivo biodistribution was performed.

[5] = test system: isolated ob/ob mouse islets; test: Uptake of ^52Mn^2+ in isolated islets under stimulatory or inhibitory conditions; format: cell-based; conditions: 15 min incubation
Method: Mouse pancreatic islets were isolated by collagenase digestion. Briefly, mice were placed under shallow anesthesia and sacrificed via cervical dislocation. The mouse common bile duct was cannulized and 3-5 mL of an ice-cold solution containing type XI collagenase (0.5 mg/mL; Sigma Aldrich, St. Louis, Mo.) and bovine serum albumin (BSA; 0.2 mg/mL; Sigma Aldrich, St. Louis, Mo.) in Hank's balanced salt solution (HBSS; Invitrogen, Carlsbad, Calif.) was injected into the mouse pancreas. After inflation, the pancreas was removed, placed in a glass vial containing 5 mL of the collagenase solution, and incubated in a shaking water bath at 37° C. Samples were digested for approximately 30 min after which the digests were centrifuged at 50×g for 2 min and islet pellets were washed three times with 30 mL of an ice-cold BSA (0.2 mg/mL) in HBSS solution. The pellet was resuspended and islets handpicked into 35 mm petri dishes. Following isolation, islets were placed in RPMI1640 media supplemented with penicillin (100 U/mL; Invitrogen), streptomycin (100 μg/mL; Invitrogen), and FBS [10% (wt/vol); Sigma] and incubated overnight at 37° C. in a 5% CO2 atmosphere.
The uptake of ^52Mn^2+ by murine islets of Langerhans was determined under several stimulatory or inhibitory conditions. Batches of 50 islets were transferred into 0.45 μm filtered bottom 1 mL centrifuge vials (Thermo Fisher Scientific, Grand Island, N.Y.), 500 μL of Krebs-Ringer buffer (KRB: 118 mM NaCl, 5.4 mM KCl, 2.4 mM CaCl, 1.2 mM MgSO4, 1 mM […], 20 mM HEPES; pH 7.4) containing a low glucose concentration (1 mM D-glucose) were added and the islets incubated for 30 min at 37° C. After removing the supernatant following centrifugation at 50×g for 5 min, 250 μL of KRB containing glucose, diazoxide (50 μM; Tocris Biosciences, Bristol, UK), or tolbutamide (250 μM; Selleckchem, Houston, Tex.) were added, and the vials were spiked with 370 kBq (10 μCi) of ^52Mn^2+. After 15 min of incubation, the solutions were filtered and islets were washed three times with KRB. The ^52Mn^2+ radioactivity in the islet pellets were measured in an automated gamma counter (Perkin Elmer).

Structure (SMILES): [51Cr] [Cr-51]
- Number of disintigrations, Total Body ([1]; Total Body): 7.20E+02 MBq-h/MBq
- Number of disintigrations, Adrenals ([1]; source organ Adrenals): 0.00E+00 MBq-h/MBq
- Number of disintigrations, Brain ([1]; source organ Brain): 3.93E+00 MBq-h/MBq
- Number of disintigrations, Breasts ([1]; source organ Breasts): 0.00E+00 MBq-h/MBq
- Number of disintigrations, Cortical Bone ([1]; source organ Cortical Bone): 7.48E−01 MBq-h/MBq
- Number of disintigrations, Gallbladder Contents ([1]; source organ Gallbladder Contents): 0.00E+00 MBq-h/MBq
- Number of disintigrations, Heart Contents ([1]; source organ Heart Contents): 0.00E+00 MBq-h/MBq
- Number of disintigrations, Heart Wall ([1]; source organ Heart Wall): 2.10E+01 MBq-h/MBq
- Number of disintigrations, Kidneys ([1]; source organ Kidneys): 6.12E+01 MBq-h/MBq
- Number of disintigrations, LLI ([1]; source organ LLI): 0.00E+00 MBq-h/MBq
- Number of disintigrations, Liver ([1]; source organ Liver): 5.58E+01 MBq-h/MBq
- Number of disintigrations, Lungs ([1]; source organ Lungs): 1.49E+01 MBq-h/MBq
- Number of disintigrations, Muscle ([1]; source organ Muscle): 1.93E+00 MBq-h/MBq
- Number of disintigrations, Ovaries ([1]; source organ Ovaries): 0.00E+00 MBq-h/MBq
- Number of disintigrations, Pancreas ([1]; source organ Pancreas): 3.64E+01 MBq-h/MBq
- Number of disintigrations, Red Marrow ([1]; source organ Red Marrow): 0.00E+00 MBq-h/MBq
- Number of disintigrations, Small Intestine ([1]; source organ Small Intestine): 0.00E+00 MBq-h/MBq
- Number of disintigrations, Spleen ([1]; source organ Spleen): 8.12E+00 MBq-h/MBq
- Number of disintigrations, Stomach ([1]; source organ Stomach): 1.23E+01 MBq-h/MBq
- Number of disintigrations, Testes ([1]; source organ Testes): 0.00E+00 MBq-h/MBq
- Number of disintigrations, Thymus ([1]; source organ Thymus): 0.00E+00 MBq-h/MBq
- Number of disintigrations, Thyroid ([1]; source organ Thyroid): 0.00E+00 MBq-h/MBq
- Number of disintigrations, Trabecular Bone ([1]; source organ Trabecular Bone): 0.00E+00 MBq-h/MBq
- Number of disintigrations, ULI ([1]; source organ ULI): 5.70E+00 MBq-h/MBq
- Number of disintigrations, Urinary Bladder Contents ([1]; source organ Urinary Bladder Contents): 0.00E+00 MBq-h/MBq
- Number of disintigrations, Uterus/Uterine Wall ([1]; source organ Uterus/Uterine Wall): 0.00E+00 MBq-h/MBq

Structure (SMILES): FC(F)OC(Cl)C(F)(F)F (centres unmarked) [Isoflurane]
- effect on accumulation of ^52Mn^2+ in the pancreas [2]: significantly inhibited

Structure (SMILES): CN(N=O)C(=O)N[C@@H]1[C@@H](O)[C@H](O)[C@@H](CO)O[C@@H]1O [STZ, reference compound]
- blood glucose after induction [3]: > 250 mg/dL

Structure (SMILES): CC1=NS(=O)(=O)c2cc(Cl)ccc2N1 [diazoxide, 7-Chloro-3-methyl-4H-1,2,4-benzothiadiazine 1,1-dioxide]
- decline in ^52Mn^2+ pancreatic uptake vs control ([4]; 20 mg/kg IP 10-15 min before IV ^52Mn^2+ bolus, PET 1 h post injection): 44%
- pancreatic ^52Mn^2+ uptake after drug (PET quantification) ([4]; 20 mg/kg IP 10-15 min before IV ^52Mn^2+ bolus, PET 1 h post injection, control 5.13±0.36 SUV): 2.85±0.92 SUV
- effect on PET signal within the pancreas ([4]; 20 mg/kg IP before ^52Mn^2+ bolus): significant (P<0.0001) abrogation
- effect on glucose-stimulated ^52Mn^2+ uptake by islets ([5]; diazoxide 50 μM added to 10 mM glucose): blocked

Structure (SMILES): COc1ccc(Cl)cc1C(=O)NCCc1ccc(S(=O)(=O)NC(=O)NC2CCCCC2)cc1 [glibenclamide]
- effect on pancreatic SUV values ([4]; glibenclamide 5 mg/kg IP (with glucose 1 g/kg) 15 min before ^52Mn^2+, 1 h post injection): significant enhancement

Structure (SMILES): OC[C@H]1OC(O)[C@H](O)[C@@H](O)[C@@H]1O (some centres unmarked) [glucose]
- effect on ^52Mn^2+ uptake by islets ([5]; 10 mM glucose vs 1 mM glucose): significantly enhanced

Structure (SMILES): CCCCNC(=O)NS(=O)(=O)c1ccc(C)cc1 [tolbutamide]
- effect on ^52Mn^2+ retention by islets ([5]; glucose and tolbutamide 250 μM): significantly higher
